One experiment deals with T1, equine BChE (eqBChE) (Equus caballus, UniProt P81908).
T1 construct: purchased Sigma-Aldrich (Milan, Italy)
In words: Percent inhibition of eqBChE, Ellman's spectrophotometric method. Type of experiment: biochemical. The settings on record: for % inhibition vs eqBChE ± SD (900 uM): 900 nM; for inhibition at 0.9 µM: [I] 900 nM. How it is done: On the synthesized compounds, enzymatic inhibition studies were carried out toward Electrophorus electricus AChE (EeAChE) and equine BChE (eqBChE) according to Ellman’s spectrophotometric method.[25]
(§1) All other chemical and biological reagents and solvents used were of the highest analytical, commercially available grade. The water, utilized for the preparation of the phosphate buffer and of the compound solutions, was distilled and filtered on nylon membrane filters with a 0.2 μm pore size with the Millipore Filtration apparatus before each use. Micropipettes Labmate (BRAND Dig. 10–100 μL; Dig. 100–1000 μL; Dig. 0.1–2 μL) and Transferpette (HIGH TECH LAB LM200: 20–200 μL; LM5000: 1000–5000 μL) were used to collect the samples. The assays were carried out by a double beam UV–vis Lambda 40 Perkin Elmer spectrophotometer using optical polystyrene cuvettes (10 × 10 × 45 mm, 340–800 nm optical transparency); each measure was repeated at least in triplicate. […] The spectrophotometric method of Ellman[25] with minor modifications was used to evaluate the inhibition of ChEs. […] EeAChE and eqBChE were periodically tested to evaluate the effective enzymatic activity.
(§2) For all the synthesized compounds, the percentages of inhibition toward AChE of Electrophorus electricus (EeAChE) and equine BChE (eqBChE) were evaluated.
Three milliliters of a solution in 0.1 M phosphate buffer (pH = 7.4) containing DTNB (0.25 mM) and EeAChE (0.083 UmL^–1) or eqBChE (0.083 UmL^–1) was placed in a polystyrene cuvette of 1.0 cm path length; 1 μL of a solution in DMSO of the tested compound was added to obtain a cuvette concentration range of 9–0.09 μM. With this solution, the blank was made. […] Each experiment was repeated at least in triplicate.

The target of experiment [1] is T2, Electrophorus electricus AChE (EeAChE) (Electrophorus electricus, UniProt O42275).
T2 construct: purchased Sigma-Aldrich (Milan, Italy)
In words: Percent inhibition of EeAChE, Ellman's spectrophotometric method. It is filed as biochemical. The settings on record: for inhibition at 900 µM: read-out: % inhibition vs EeAChE ± SD (900 uM), 900 uM; for inhibition at 0.9 µM: read-out: % inhibition vs EeAChE ± SD, [I] 900 nM; for inhibition at 90 µM: read-out: % inhibition vs EeAChE ± SD (90 uM), 90 uM. Here is the method:
as §1, §2
Three milliliters of a solution in 0.1 M phosphate buffer (pH = 7.4) containing DTNB (0.25 mM) and EeAChE (0.083 UmL^–1) or eqBChE (0.083 UmL^–1) was placed in a polystyrene cuvette of 1.0 cm path length; 1 μL of a […] With this solution, the blank was made. […] Each experiment was repeated at least in triplicate.
On the technique in general: In Ellman's method for cholinesterases, released thiocholine reacts with DTNB.

[2] abbreviates: [I] 9 μM, 0.0833 U/mL enzyme, 100 μM acetylthiocholine, read-out: % inhibition vs eqBChE ± SD.
Setting [3] is: read-out: % inhibition vs eqBChE ± SD (9 uM), 9 uM, supplement csv.
The mark [4] stands for this setting: read-out: % inhibition vs EeAChE ± SD (9 uM), 9 uM, supplement csv.
Setting [5] is: read-out: % inhibition vs EeAChE ± SD, [I] 9 μM, 0.0833 U/mL enzyme, 100 μM acetylthiocholine.
Where [6] appears, read: 0.0833 U/mL enzyme, 100 μM acetylthiocholine.
Where [7] appears, read: 0.0833 U/mL enzyme, 100 μM acetylthiocholine, read-out: % inhibition vs eqBChE ± SD.

Where two headings read alike, the source gives them in different places.

In general, inhibition refers to the change of the read-out against control, counted positive when it falls.

T1 sequence (P81908 whole entry): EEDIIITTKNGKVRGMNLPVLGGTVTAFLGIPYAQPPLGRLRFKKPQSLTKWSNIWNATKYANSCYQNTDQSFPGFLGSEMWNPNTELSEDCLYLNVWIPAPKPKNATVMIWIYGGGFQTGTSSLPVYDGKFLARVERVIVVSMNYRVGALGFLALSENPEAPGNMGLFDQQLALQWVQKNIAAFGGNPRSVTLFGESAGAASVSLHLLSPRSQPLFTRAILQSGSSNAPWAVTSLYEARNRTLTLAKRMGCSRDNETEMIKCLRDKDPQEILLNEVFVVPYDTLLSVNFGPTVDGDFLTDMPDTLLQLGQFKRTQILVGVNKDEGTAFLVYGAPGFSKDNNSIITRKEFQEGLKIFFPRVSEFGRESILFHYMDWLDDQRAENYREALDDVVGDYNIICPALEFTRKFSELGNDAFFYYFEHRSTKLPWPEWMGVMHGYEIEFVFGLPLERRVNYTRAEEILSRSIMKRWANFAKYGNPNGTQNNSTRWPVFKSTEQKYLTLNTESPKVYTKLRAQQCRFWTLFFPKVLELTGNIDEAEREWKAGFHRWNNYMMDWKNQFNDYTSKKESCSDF
T2 sequence (O42275 24-633): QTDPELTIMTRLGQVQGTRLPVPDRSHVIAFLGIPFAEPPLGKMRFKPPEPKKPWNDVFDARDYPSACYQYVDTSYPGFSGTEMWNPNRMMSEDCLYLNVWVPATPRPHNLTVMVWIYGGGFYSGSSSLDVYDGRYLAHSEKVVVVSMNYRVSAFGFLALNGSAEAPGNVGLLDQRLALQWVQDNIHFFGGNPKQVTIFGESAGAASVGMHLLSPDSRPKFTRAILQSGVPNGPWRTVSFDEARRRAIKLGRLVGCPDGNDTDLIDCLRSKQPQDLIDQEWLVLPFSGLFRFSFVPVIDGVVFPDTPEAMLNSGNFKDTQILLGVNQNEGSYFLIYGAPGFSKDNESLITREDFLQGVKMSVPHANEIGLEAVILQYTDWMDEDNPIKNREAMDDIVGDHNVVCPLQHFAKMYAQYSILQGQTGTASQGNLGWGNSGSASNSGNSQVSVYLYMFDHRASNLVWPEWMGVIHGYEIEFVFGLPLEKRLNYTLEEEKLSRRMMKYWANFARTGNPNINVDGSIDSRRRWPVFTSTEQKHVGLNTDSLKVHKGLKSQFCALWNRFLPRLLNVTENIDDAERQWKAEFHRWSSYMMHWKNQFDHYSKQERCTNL

As for `Brc1ccc(CNCCCCCNc2ncccn2)cc1` [Compound 10, N^1-(4-Bromobenzyl)-N^5-(pyrimidin-2-yl)pentane-1,5-diamine], the inhibition at 9 µM at equine BChE (eqBChE) (setting [2]) came to 17.1 ± 0.9%; on equine BChE (eqBChE) (setting [3]), 17.1 ± 0.9%; in experiment [1] (setting [4]), 14.5 ± 0.7%; in experiment [1] (setting [5]), 14.5 ± 0.7%.

Regarding `COc1ccccc1CNCCCCCNc1ncccn1` [Compound 11, N^1-(2-Methoxybenzyl)-N^5-(pyrimidin-2-yl)pentane-1,5-diamine], the inhibition at 9 µM at equine BChE (eqBChE) (setting [2]) is 22.1 ± 1.3%; on equine BChE (eqBChE) (setting [3]), 22.1 ± 1.3%; in experiment [1] (setting [4]) it was 62.2 ± 0.9%; in experiment [1] (setting [5]), 60 to 70%. Also, the inhibition at 900 µM in experiment [1] (supplement csv) was found to be 14.6 ± 0.6%. Also, in experiment [1] (setting [6]), the inhibition at 0.9 µM stood at 14.6 ± 0.6%.

Consider `Clc1cc(CNCCCCCNc2ncccn2)cc(Cl)n1` [Compound 12, N^1-((2,6-Dichloropyridin-4-yl)methyl)-N^5-(pyrimidin-2-yl)pentane-1,5-diamine], for which the inhibition at 9 µM at equine BChE (eqBChE) (setting [2]) came out at 8.5 ± 1.3%; at equine BChE (eqBChE) (setting [3]) it was 8.5 ± 1.3%; in experiment [1] (setting [4]) it was 16.5 ± 2%; in experiment [1] (setting [5]), 16.5 ± 2%.

Consider `Brc1ccc(CNCCCCCCNc2ncccn2)cc1` [Compound 14, N^1-(4-Bromobenzyl)-N^6-(pyrimidin-2-yl)hexane-1,6-diamine], for which the “% inhibition vs eqBChE ± SD (900 uM)” value at equine BChE (eqBChE) (supplement csv) was 6.6 ± 0.2%. In addition, the inhibition at 0.9 µM at equine BChE (eqBChE) (setting [7]) stood at 6.6 ± 0.2%. Further, the inhibition at 9 µM came to 38.6 ± 5.5% at equine BChE (eqBChE) (setting [2]), 38.6 ± 5.5% on equine BChE (eqBChE) (setting [3]), 23 ± 1.6% in experiment [1] (setting [4]) and 23 ± 1.6% in experiment [1] (setting [5]).

Consider `Clc1ccc(CNCCCCCCNc2ncccn2)cc1` [Compound 15, N^1-(4-Chlorobenzyl)-N^6-(pyrimidin-2-yl)hexane-1,6-diamine], for which the inhibition at 9 µM on equine BChE (eqBChE) (setting [2]) was found to be 21.5 ± 1.2%; at equine BChE (eqBChE) (setting [3]), 21.5 ± 1.2%; in experiment [1] (setting [4]) it was 29.9 ± 1.2%; in experiment [1] (setting [5]) it was 29.9 ± 1.2%.

For the compound `COc1ccccc1CNCCCCCCNc1ncccn1` [Compound 16, N^1-(2-Methoxybenzyl)-N^6-(pyrimidin-2-yl)hexane-1,6-diamine], the “% inhibition vs eqBChE ± SD (900 uM)” value at equine BChE (eqBChE) (supplement csv) is 6.2 ± 0.4%. Also, the inhibition at 0.9 µM worked out at 6.2 ± 0.4% at equine BChE (eqBChE) (setting [7]) and 15.7 ± 1.1% in experiment [1] (setting [6]). For the same compound, the inhibition at 9 µM on equine BChE (eqBChE) (setting [2]) was 43.9 ± 4.8%; on equine BChE (eqBChE) (setting [3]), 43.9 ± 4.8%; in experiment [1] (setting [4]), 68.3 ± 0.7%; in experiment [1] (setting [5]), 60 to 70%. For the same compound, the inhibition at 900 µM in experiment [1] (supplement csv) amounted to 15.7 ± 1.1%.

For `COc1cc(CNCCCCCCNc2ncccn2)cc(OC)c1OC` [Compound 17, N^1-(Pyrimidin-2-yl)-N^6-(3,4,5-trimethoxybenzyl)hexane-1,6-diamine], the inhibition at 9 µM on equine BChE (eqBChE) (setting [2]) amounted to 29.4 ± 4.5%; at equine BChE (eqBChE) (setting [3]) it was 29.4 ± 4.5%; in experiment [1] (setting [4]), 16.4 ± 2.8%; in experiment [1] (setting [5]), 16.4 ± 2.8%.

For `Clc1cc(CNCCCCCCNc2ncccn2)cc(Cl)n1` [Compound 21, N^1-((2,6-Dichloropyridin-4-yl)methyl)-N^6-(pyrimidin-2-yl)hexane-1,6-diamine], the inhibition at 9 µM at equine BChE (eqBChE) (setting [2]) came out at 26.8 ± 0.4%; at equine BChE (eqBChE) (setting [3]), 26.8 ± 0.4%; in experiment [1] (setting [4]) it was 18.5 ± 1.8%; in experiment [1] (setting [5]), 18.5 ± 1.8%.

As to `Brc1ccc(CNCCCCCNc2ccccn2)cc1` [Compound 24, N^1-(4-Bromobenzyl)-N^5-(pyridin-2-yl)pentane-1,5-diamine], at equine BChE (eqBChE) (setting [7]), the inhibition at 0.9 µM stood at 12.1 ± 4.6%. For the same compound, the inhibition at 9 µM on equine BChE (eqBChE) (setting [2]) was determined as 56.4 ± 1.6%; at equine BChE (eqBChE) (setting [3]) it was 12.1 ± 4.6%; in experiment [1] (setting [4]) it was 18.2 ± 3.5%; in experiment [1] (setting [5]), 18.2 ± 3.5%. In experiment [1] (supplement csv), the inhibition at 90 µM is 56.4 ± 1.6%.

Consider `Clc1ccc(CNCCCCCCNc2ccccn2)cc1` [Compound 27, N^1-(4-Chlorobenzyl)-N^6-(pyridin-2-yl)hexane-1,6-diamine], for which the inhibition at 0.9 µM on equine BChE (eqBChE) (setting [7]) came to 17.7 ± 5.2%. The inhibition at 9 µM on equine BChE (eqBChE) (setting [2]) was 73.2 ± 3.6%; on equine BChE (eqBChE) (setting [3]), 17.7 ± 5.2%; in experiment [1] (setting [4]) it was 27.7 ± 4.7%; in experiment [1] (setting [5]), 24 to 30%. Moreover, the inhibition at 90 µM in experiment [1] (supplement csv) turned out to be 73.2 ± 3.6%.

As for `COc1cc(CNCCCCCCNc2ccccn2)cc(OC)c1OC` [Compound 29, N^1-(Pyridin-2-yl)-N^6-(3,4,5-trimethoxybenzyl)hexane-1,6-diamine], at equine BChE (eqBChE) (setting [7]), the inhibition at 0.9 µM is 19 ± 2.5%. Also, the inhibition at 9 µM is 68.9 ± 4.1% on equine BChE (eqBChE) (setting [2]), 19 ± 2.5% at equine BChE (eqBChE) (setting [3]), 30.9 ± 1.1% in experiment [1] (setting [4]) and 24 to 30% in experiment [1] (setting [5]). Moreover, in experiment [1] (supplement csv), the inhibition at 90 µM was 68.9 ± 4.1%.

`Oc1cccc(CNCCCCCCNc2ccccn2)c1` [Compound 31, 3-(((6-(Pyridin-2-ylamino)hexyl)amino)methyl)phenol]: the inhibition at 0.9 µM at equine BChE (eqBChE) (setting [7]) was determined as 19.1 ± 2.2%. Further, the inhibition at 9 µM is 56 ± 3.8% on equine BChE (eqBChE) (setting [2]), 19.1 ± 2.2% at equine BChE (eqBChE) (setting [3]), 42.2 ± 2.2% in experiment [1] (setting [4]) and ~40% in experiment [1] (setting [5]). The inhibition at 90 µM in experiment [1] (supplement csv) turned out to be 56 ± 3.8%.

For `Oc1cccc(CNCCCCCCNc2ccccn2)c1O` [Compound 32, 3-(((6-(Pyridin-2-ylamino)hexyl)amino)methyl)benzene-1,2-diol], the inhibition at 0.9 µM at equine BChE (eqBChE) (setting [7]) was found to be 11.5 ± 2.9%; in experiment [1] (setting [6]), 23.9 ± 1.5%. The inhibition at 9 µM is 59.8 ± 1.5% at equine BChE (eqBChE) (setting [2]), 11.5 ± 2.9% at equine BChE (eqBChE) (setting [3]), 63.9 ± 2.2% in experiment [1] (setting [4]) and ~60% in experiment [1] (setting [5]). Besides, the inhibition at 90 µM in experiment [1] (supplement csv) came to 59.8 ± 1.5%. Also, in experiment [1] (supplement csv), the inhibition at 900 µM turned out to be 23.9 ± 1.5%.

`Clc1cc(CNCCCCCCNc2ccccn2)cc(Cl)n1` [Compound 33, N^1-((2,6-Dichloropyridin-4-yl)methyl)-N^6-(pyridin-2-yl)hexane-1,6-diamine]: the inhibition at 0.9 µM at equine BChE (eqBChE) (setting [7]) was 13 ± 0.7%; in experiment [1] (setting [6]) it was 6.2 ± 1.1%. The inhibition at 9 µM was 68.3 ± 2.9% on equine BChE (eqBChE) (setting [2]), 13 ± 0.7% on equine BChE (eqBChE) (setting [3]), 40.6 ± 4.1% in experiment [1] (setting [4]) and ~40% in experiment [1] (setting [5]). The inhibition at 90 µM in experiment [1] (supplement csv) is 68.3 ± 2.9%. In addition, the inhibition at 900 µM in experiment [1] (supplement csv) was 6.2 ± 1.1%.

For the origin of these results see publication PMC8569681, “New Pyrimidine and Pyridine Derivatives as Multitarget Cholinesterase Inhibitors: Design, Synthesis, and In Vitro and In Cellulo Evaluation” (ACS Chemical Neuroscience, 2021).
